In patent US20050187240A1, “Aaptamine and isoaaptamine and structural modifications thereof” (The Arizona Board of Regents, Acting for and on behalf of …, priority 2004, published 2005):
pIC50: −log10 of the molar value. Converted amounts (≈) assume the structure as drawn. Read-outs that look alike come from different tables or passages of the source.

Assays:
[1] = tested on: murine P388 lymphocytic leukemia cell line; assay: Cancer cell growth inhibition, murine P388 lymphocytic leukemia cell line; assay type: cell-based; conditions: for IC50: Mus musculus
Excerpt: (§1) Evaluation of demethyloxyaaptamine (3), aaptamine (1), isoaaptamine (2) and hystatin 1 (11) against the Arizona State University Cancer Research Institute's human tumor cell line panel (Table 1) and the NCI 60-cell line human tumor screen were undertaken. (Boyd, M. R., Cancer: Principles and Practices of Oncology Updates; DeVita, et al., Eds; Lippincott: Philadelphia, 1989, Vol. 10, No. 3, pp. 1-12; Boyd, et al., Drug Development Research 1995, 34, 91-109; Boyd, M. R., et al. Cytotoxic Anticancer Drugs: Models and Concepts for Drug Discovery and Development; Valeriote, A., et al., Eds, Kluwer Academic Publishers: Amsterdam, 1992, pp. 11-34.)
(§2) Biology The cancer cell growth inhibitory properties were examined using the murine P388 lymphocytic leukemia cell line and a selection of human cancer cell lines.
(§3) All of the synthetic products were evaluated against a minipanel of human cancer cell lines, the murine P388 lymphocytic leukemia cell line and a selection of microorganisms.

[2] = tested on: ovary OVCAR-3; assay: Cancer cell growth inhibition, ovary OVCAR-3; assay type: cell-based, human; conditions: Table 1
Excerpt: (§4) (Boyd, M. R., Cancer: Principles and Practices of Oncology Updates; […], et al., Eds; Lippincott: Philadelphia, 1989, Vol. 10, No. 3, pp. 1-12; Boyd, et al., Drug Development Research 1995, 34, 91-109; Boyd, M. R., et al. Cytotoxic Anticancer Drugs: Models and Concepts for Drug Discovery and Development; Valeriote, A., et al., Eds, Kluwer Academic Publishers: Amsterdam, 1992, pp. 11-34.)

[3] = tested on: CNS SF-295; assay: Cancer cell growth inhibition, CNS SF-295; assay type: cell-based, human; conditions: Table 1
Excerpt: as §4

[4] = tested on: renal A498; assay: Cancer cell growth inhibition, renal A498; assay type: cell-based, human; conditions: Table 1
Excerpt: as §4

[5] = tested on: lung NCI-H460; assay: Cancer cell growth inhibition, lung NCI-H460; assay type: cell-based, human; conditions: Homo sapiens, lung NCI-H460
Excerpt: as §1, §2, §3

[6] = tested on: colon KM 20L2; assay: Cancer cell growth inhibition, colon KM 20L2; assay type: cell-based, human; conditions: Homo sapiens, colon KM 20L2
Excerpt: as §1, §2, §3

[7] = tested on: melanoma SK-MEL-5; assay: Cancer cell growth inhibition, melanoma SK-MEL-5; assay type: cell-based, human; conditions: Table 1
Excerpt: as §4

[8] = tested on: pancreas BXPC-3; assay: Cancer cell growth inhibition, pancreas BXPC-3; assay type: cell-based, human; conditions: Homo sapiens; Table 3; pancreas BXPC-3; read-out: Cancer cell growth inhibitory ED50
Experimental: as §2, §3

[9] = tested on: breast MCF-7; assay: Cancer cell growth inhibition, breast MCF-7; assay type: cell-based, human; conditions: Homo sapiens, MCF7; Table 3; breast MCF-7; read-out: Cancer cell growth inhibitory ED50
Experimental: as §2, §3

[10] = tested on: CNS SF-268; assay: Cancer cell growth inhibition, CNS SF-268; assay type: cell-based, human; conditions: Homo sapiens; Table 3; CNS SF-268; read-out: Cancer cell growth inhibitory ED50
Experimental: as §2, §3

[11] = tested on: prostrate DU-145; assay: Cancer cell growth inhibition, prostate DU-145; assay type: cell-based, human; conditions: Homo sapiens; Table 3; prostrate DU-145; read-out: Cancer cell growth inhibitory ED50
Experimental: as §2, §3

[12] = tested on: Cryptococcus neoformans; assay: Broth microdilution susceptibility assay, Cryptococcus neoformans; assay type: cell-based; conditions: Table 2, read-out: Range of minimum inhibitory concentration
[13] = tested on: Candida albicans; assay: Broth microdilution susceptibility assay, Candida albicans; assay type: cell-based; conditions: Table 2
[14] = tested on: Staphylococcus aureus; assay: Broth microdilution susceptibility assay, Staphylococcus aureus; assay type: cell-based; conditions: Table 2, read-out: Range of minimum inhibitory concentration
[15] = tested on: Streptococcus pneumoniae; assay: Broth microdilution susceptibility assay, Streptococcus pneumoniae; assay type: cell-based; conditions: Table 2, read-out: Range of minimum inhibitory concentration
[16] = tested on: Enterococcus faecalis; assay: Broth microdilution susceptibility assay, Enterococcus faecalis; assay type: cell-based; conditions: Table 2, read-out: Range of minimum inhibitory concentration
[17] = tested on: Micrococcus luteus; assay: Broth microdilution susceptibility assay, Micrococcus luteus; assay type: cell-based; conditions: Table 2, read-out: Range of minimum inhibitory concentration
[18] = tested on: Escherichia coli; assay: Broth microdilution susceptibility assay, Escherichia coli; assay type: cell-based; conditions: Table 2
[19] = tested on: Enterobacter cloacae; assay: Broth microdilution susceptibility assay, Enterobacter cloacae; assay type: cell-based; conditions: Table 2
[20] = tested on: Stenotrophomonas maltophilia; assay: Broth microdilution susceptibility assay, Stenotrophomonas maltophilia; assay type: cell-based; conditions: Table 2
[21] = tested on: Neisseria gonorrhoeae; assay: Broth microdilution susceptibility assay, Neisseria gonorrhoeae; assay type: cell-based; conditions: Table 2, read-out: Range of minimum inhibitory concentration
[22] = molecular target: PKC alpha (Homo sapiens, UniProt P17252); assay: Inhibition of [3H]phorbol 12,13-dibutyrate binding to PKC alpha; conditions: 30 μM compound; read-out: inhibition of [3H]phorbol 12,13-dibutyrate binding to PKC alpha
Experimental: Isoaaptamine (2) and derivatives 4, 5, 7, 8, and 14-18 were evaluated as ligands for PKC, based on the initial report of activity for isoaaptamine (Patil, et al., PCT Int. Appl. WO 95/0584 March 1995). Activity was measured at 30 μM compound using inhibition of [^3H-20]phorbol 12,13-dibutyrate binding to PKC alpha as described previously (Kazanietz, M. G., et al., Molecular Pharmacol., 1993, 44, 298). Assays were carried out with triplicate measurements in either single or triplicate experiments, depending on the compound.
Compounds 4, 5, 9a-c, and 10a-d were evaluated as ligands for PKC, based on the initial report of activity for isoaaptamine. Activity was measured at 30 μM compound using inhibition of [20-^3H]phorbol 12,13-dibutyrate binding to PKC alpha as described previously (Kazanietz, M. G., et al., Characterization of Ligand and Substrate Specificity for the Calcium-Dependent and Calcium-Independent Protein Kinase C Isoenzymes, Molecular Pharmacol. 1993, 44, 298-307). Assays were carried out with triplicate measurement in either single or triplicate experiments, depending on the compound. Inhibition by 9a and 9b was 6.4% and 9.2%, respectively. That by 10a, 10b, and 10d was 11.8%, 12.6%, and 16.0%, respectively. That by other derivatives was 5% or less. We conclude that these compounds show only very weak activity as ligands for PKC.

[23] = tested on: tubulin; assay: Tubulin polymerization (assembly) inhibition; assay type: biochemical; conditions: b138 series; 20 minutes incubation at 30° C.; read-out: IC50 for inhibition of extent of tubulin assembly
Experimental: Only minimal inhibitory activity was observed. While compounds 15 and 8 did inhibit the rate of polymerization by over 50% at 40 μM (the highest concentration examined), an IC50 value for inhibition of assembly extent was obtained only for compound 18. […] Thus, it seems unlikely that the cytotoxic mechanism for these aaptamine analogs derives from an interaction with tubulin.
A number of the aaptamine derivatives whose synthesis is described here were examined for potential effects on tubulin assembly. These were compounds 2, 4, 5, 9a-c, and 10a-d. […] For comparison, in experiments performed contemporaneously, the potent colchicine site drug combretastatin A-4 yielded an IC50 value of about 2 μM.

[24] = Stability of the substance (observation); assay type: physicochemical
Excerpt: When newly isolated, isoaaptamine (2) appears as a yellow colored powder that rapidly changes to dark green and finally brown or black, presumably due to air oxidation. […] For that purpose, isoaaptamine (2) was first phosphorylated with dibenzylphosphate (Pettit, G. R. et al., Anti-Cancer Drug Design 2000, 15, 203-216; Silverberg, L. J., Tetrahedron Lett. 1996, 37, 771-774). […] Scheme 2 below illustrates the aforementioned synthesis method. [drawing 17] Biology

[25] = Table 1, read-out: Cancer Cell Line Results ED50
[26] = Table 3, read-out: Cancer cell growth inhibitory ED50

## COc1cc2ccnc3c2c(c1O)N(C)C=C3 [Compound 2, isoaaptamine]
[1]; P388, Table 3, leukemia P-388, read-out: Cancer cell growth inhibitory ED50
  IC50: 1.6 µg/mL (≈ 7.01 µM)
[1]; Table 1, leukemia murine P388, read-out: Cancer Cell Line Results ED50
  IC50: 0.28 µg/mL (≈ 1.23 µM)
[1]; murine P388
  P388 ED50: 0.28 µg/mL
[2]
  Cancer Cell Line Results ED50: 1.20 µg/mL
[3]
  Cancer Cell Line Results ED50: 2.60 µg/mL
[4]
  Cancer Cell Line Results ED50: 2.20 µg/mL
[5]; [25]
  IC50: 2.4 µg/mL (≈ 10.5 µM)
[5]; [26]
  IC50: 2.9 µg/mL (≈ 12.7 µM)
[6]; [25]
  IC50: 2.3 µg/mL (≈ 10.1 µM)
[6]; [26]
  IC50: > 10 µg/mL
[7]
  Cancer Cell Line Results ED50: 1.60 µg/mL
[8]
  IC50: 4.1 µg/mL (≈ 18 µM)
[9]
  IC50: 2.2 µg/mL (≈ 9.64 µM)
[10]
  IC50: 2.2 µg/mL (≈ 9.64 µM)
[11]
  IC50: 3.3 µg/mL (≈ 14.5 µM)
[12]
  MIC: 64 µg/mL (≈ 280 µM)
[13]
  Range of minimum inhibitory concentration: * (no inhibition at 64 ug/ml)
[14]
  MIC: 16 to 32 µg/mL (≈ 70.1 to 140 µM)
[15]
  MIC: 8 to 32 µg/mL (≈ 35 to 140 µM)
[16]
  MIC: 32 to 64 µg/mL (≈ 140 to 280 µM)
[17]
  MIC: 32 to 64 µg/mL (≈ 140 to 280 µM)
[18]
  Range of minimum inhibitory concentration: * (no inhibition at 64 ug/ml)
[19]
  Range of minimum inhibitory concentration: * (no inhibition at 64 ug/ml)
[20]
  Range of minimum inhibitory concentration: * (no inhibition at 64 ug/ml)
[21]
  MIC: < 0.5 µg/mL
[22]
  inhibition at 30 µM: 13%
[23]
  pIC50: 4.51
[24]
  stability: relatively unstable
